Columns and labels:
[1] = target: DPP-IV (UniProt P27487); test: In-vitro DPP-IV assay (cleavage of pNA from Gly-Pro-pNA); type: biochemical, porcine kidney or human recombinant; details: for IC50: DPP-IV; for % Inhibition: DPP-IV inhibition at 100 nM
Experimental: Protocol for In-Vitro DPP-IV Assay
DPP-IV activity was determined by the rate of cleavage of p-nitro aniline (pNA) from synthetic substrate Glycine-Proline-pNA. The assay was conducted by adding 1 μg of porcine kidney or human recombinant DPP-IV enzyme (Sigma Aldrich, USA) in 100 μL of the assay buffer (100 mM Tris, pH 7.4, 140 mM NaCl, 10 mM KCl, 1% BSA) to 96 well Cellstar flat bottom microtitre plates (Greiner Bio-one, Germany). The reaction was initiated by adding 80 μl of 500 μM substrate Gly-Pro-pNA. The incubation was carried out in the kinetic mode at 30° C. for 30 min. Absorbance was measured using Synergy HT Biotek Multiplate reader at 410 nm. Test compounds and solvent controls were added as 10 μL additions. A standard curve of free p-nitro, aniline (pNA) was generated using 0-2000 μM pNA in the assay buffer. In addition DPP-IV activity was also determined by using Fluorogenic substrate (Gly-Pro-AMC) using human recombinant DPP-IV enzyme (Sigma Aldrich USA).
Test compounds dissolved in DMSO at 9-10 different concentrations were tested in triplicates along with the solvent control and blank samples. % age inhibition was calculated at each concentration with respect to the solvent control (no test compound added). IC50 values were calculated from 3 experiments using the Graph Pad Prism or Sigma Stat software.

[2] = test system: C57BL/6J mice; test: Oral glucose tolerance test (OGTT) in C57BL/6J mice; type: in vivo; details: for ED50 (mg/kg p.o.): OGTT in C57BL/6J mice; for % Reduction in glucose excursion: OGTT in C57BL/6J mice at 3 mg/kg body weight, glucose 2 g/kg p.o., glucose AUC
Experimental: Oral Glucose Tolerance Test (OGTT) in C57BL/6J Mice
The oral glucose tolerance test (OGTT) measures the body's ability to use glucose that is the body's main source of energy. OGTT serves as a primary in-vivo screen to select efficacious test compounds for their antidiabetic activity. Compounds were formulated in 0.25% CMC with a drop of tween 80 (optional). C57BL/6J male mice (8-9 weeks) were fasted overnight and randomized into different groups (n=6) on body weigh basis. At T−15 min blood was collected from each group for glucose estimation. At T0 compounds or vehicle were administered with simultaneous administration of glucose (2 g/kg p.o.) to each group. RO water was administered to no glucose control group. Blood samples were collected from retro-orbital plexus at 15, 30, 60 and 120 min post dosing for glucose estimation. The AUC for glucose was calculated to get the reduction in glucose excursion.

IC50 [1] [nM]	Structure (SMILES)	% Inhibition [1]	ED50 (mg/kg p.o.) [2] [mg/kg p.o.]	% Reduction in glucose excursion [2] [%]
1 to 100	N[C@@H](CC(=O)N1CC(=O)Nc2ccccc2C1)Cc1cc(F)c(F)cc1F [Compound 2]	Y (Y: 50-100% DPP-IV inhibition at 100 nM)	0.4	51
1 to 100	N[C@@H](CC(=O)N1CC(=O)Nc2cc(F)ccc2C1)Cc1cc(F)c(F)cc1F [Compound 3]	Y (Y: 50-100% DPP-IV inhibition at 100 nM)	0.7	37
1 to 100	N[C@@H](CC(=O)N1CC(=O)N(CC(=O)NC2CC2)c2cc(F)ccc2C1)Cc1cc(F)c(F)cc1F [Compound 38]	Y (Y: 50-100% DPP-IV inhibition at 100 nM)	–	–
–	CN(C(=O)CN1C(=O)CN(C(=O)C[C@H](N)Cc2cc(F)c(F)cc2F)Cc2ccccc21)C1CC1 [Compound 39]	Y (Y: 50-100% DPP-IV inhibition at 100 nM)	–	–

Structure (SMILES)	IC50 [1] [nM]	% Inhibition [1]	ED50 (mg/kg p.o.) [2] [mg/kg p.o.]	% Reduction in glucose excursion [2] [%]
N[C@@H](CC(=O)N1Cc2ccccc2-n2ccnc2C1)Cc1cc(F)c(F)cc1F [Compound 95]	1 to 100	Y (Y: 50-100% DPP-IV inhibition at 100 nM)	–	–

Reference: patent publication US8455479B2, “Heterocyclic compounds” (Panacea Biotec Limited, priority 2008, dated 2013)
